Columns and labels:
[1] = target: T1, human chemokine receptor CCR1 (Homo sapiens, UniProt P32246); assay: Inhibitory activity against binding to the chemokine receptor CCR1 ([125I]MIP-1 alpha binding, CHO cells); settings: 50 pM [125I]MIP-1 alpha, 90 minutes, 37° C, pH 7.4, CHO cells expressing CCR1; read-out: 50% inhibitory concentration (IC50 value) against [125I]MIP-1 alpha binding
T1 construct: expressed in transfected cells
T1 sequence (P32246 1-355): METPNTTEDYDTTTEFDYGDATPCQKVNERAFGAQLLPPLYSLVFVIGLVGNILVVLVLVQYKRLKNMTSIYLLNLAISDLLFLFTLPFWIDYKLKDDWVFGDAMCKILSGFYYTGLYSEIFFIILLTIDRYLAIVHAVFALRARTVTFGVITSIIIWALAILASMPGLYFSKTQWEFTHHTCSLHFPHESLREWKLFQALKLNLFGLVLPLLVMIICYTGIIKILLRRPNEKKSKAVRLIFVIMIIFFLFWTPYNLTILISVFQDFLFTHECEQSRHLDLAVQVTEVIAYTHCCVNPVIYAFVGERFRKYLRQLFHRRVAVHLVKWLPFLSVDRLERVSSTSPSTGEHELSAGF
Procedure: cDNAs which code human chemokine receptor CCR1 was subcloned to Hind III/Xba I part of the expression vector pRc/CMV (Invitrogen) to prepare pRc/CMV CCR1. Then, pRc/CMV CCR1 was transfected to CHO cells by using lipofectamine (GIBCO) to obtain a stable cell strain resistant against 0.5 mg/ml of G418.
The stable cell strain, 50 pM[^125 I]MIP-1 alpha (2000 Ci/mmol, manufactured by New England Nuclear) and a test compound were suspended in 0.2 ml of Krebs-Ringer/0.1% bovine serum albumin/0.1% glucose (pH 7.4), and incubated for 90 minutes at a temperature of 37° C. Then, it was subjected to filtration by means of a glass filter GF/C which was preliminarily impregnated in 1% of polyethyleneimine, and washed with 1 ml of Krebs-Ringer/0.1% bovine serum albumin/0.1% glucose (pH 7.4), whereby radio activity on the glass filter was measured. The binding affinity to the chemokine receptors CCR1 was shown as a 50% inhibitory concentration (IC50 value) of the compound of the present invention against [^125 I]MIP-1 alpha binding.

[2] = target: T2, chemokine receptor CCR3 (Homo sapiens, UniProt P51677); assay: Inhibitory activity against binding to the chemokine receptor CCR3 ([125I]Eotaxin binding, CHO cells); settings: 50 pM [125I]Eotaxin, 90 minutes, 37° C, pH 7.4, CHO cells expressing CCR3; read-out: 50% inhibitory concentration (IC50 value) against [125I]Eotaxin binding
T2 construct: expressed in transfected cells
T2 sequence (P51677 1-355): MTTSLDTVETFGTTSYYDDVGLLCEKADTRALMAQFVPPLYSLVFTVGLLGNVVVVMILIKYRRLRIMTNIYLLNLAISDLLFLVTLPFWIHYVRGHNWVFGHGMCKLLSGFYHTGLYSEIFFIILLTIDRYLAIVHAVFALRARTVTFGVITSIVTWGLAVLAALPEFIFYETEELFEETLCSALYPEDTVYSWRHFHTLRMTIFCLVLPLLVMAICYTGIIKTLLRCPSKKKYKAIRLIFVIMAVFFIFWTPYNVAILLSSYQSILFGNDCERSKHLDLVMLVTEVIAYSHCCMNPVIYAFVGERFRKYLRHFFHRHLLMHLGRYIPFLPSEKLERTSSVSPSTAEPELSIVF
Procedure: Further, an expression vector of a gene which codes chemokine receptor CCR3 was transfected to CHO cell by using lipofectamine to obtain a stable cell strain resistant against 0.5 mg/ml of G418. The stable cell strain, 50 pM[^125 I]Eotaxin (2000 Ci/mmol, manufactured by Amersham) and a test compound were suspended in 0.2 ml of Krebs-Ringer/0.1% bovine serum albumin/0.1% glucose (pH 7.4) and incubated for 90 minutes at a temperature of 37° C. Then, it was subjected to filtration by means of a glass filter GF/C which was preliminarily impregnated in 1% polyethyleneimine, and washed with 1 ml of Krebs-Ringer/0.1% bovine serum albumin/0.1% glucose (pH 7.4), whereby radio activity on the glass filter was measured. The binding affinity to the chemokine receptors CCR3 was shown as a 50% inhibitory concentration (IC50 value) of the compounds of the present invention against [^125 I]Eotaxin binding.

[3] = tested on: CCR3; assay: CCR3 antagonist activities (Eotaxin-induced intracellular calcium increase in human eosinophils); type: cell-based; settings: 41 nM compound 5 minutes before agonist Eotaxin (10 nM), Fura2
Procedure: By using human eosinophil which stably express CCR3, the activity of the compounds of the present invention to intracellular calcium concentration was measured by the following method. […] of Fura2 acetoxymethyl ester (produced by Dojin Kagaku Laboratories) was added to eosinophils and incubated for 30 minutes at a temperature of 37° C. Then, the mixture was excited by irradiation with light at 340 nm and 380 nm, fluorescence at 500 nm was measured, 340/380 ratio was monitored, thereby intracellular calcium concentration was calculated.

[4] = tested on: chemokine receptor CCR1; assay: Activities to intracellular cyclic AMP concentration (CHO cells stably expressing CCR1); type: cell-based, human
Procedure: By using CHO cells which stably express the chemokine receptor CCR1, the activity of the test compounds to intracellular cyclic AMP concentration had been studied.
The CHO cells was suspended in Locke's solution (pH 7.4:154 mM of sodium chloride, 5.6 mM of potassium chloride, 2 mM of calcium chloride, 1 mM of magnesium chloride, 0.1% glucose, 10 mM of Hepes and 0.3 mM of isobutylmethylxanthine), and preliminarily incubated at a temperature of 37° C. for 5 minutes, and 100 nM of hMIP-1 alpha and 0.01 mM of Forskolin were added thereto. The reaction was kept for 10 minutes and terminated by adding trichloroacetic acid. The reaction mixture was centrifuged at 15000 rpm for 5 minutes and supernatant was obtained. Trichloroacetic acid in the supernatant was removed by extraction with diethyl ether, and the supernatant was evaporated to dryness by centrifugal evaporator. The cyclic AMP concentration in the sample thus obtained was measured by cyclic AMP kit (produced by Amersham). The activity of test compounds to the cyclic AMP concentration was obtained by studying antagonism against hMIP-1 alpha by adding 0.01 mM of the test compounds 5 minutes before adding 100 nM of hMIP-1 alpha.

[5] = control reactions: 0.01 mM Forskolin solely, or with 100 nM hMIP-1 alpha, no test compound

For `CC[N+]1(CC2CCCCCCC2)CCC(NC(=O)C2c3cc(Br)ccc3Oc3ccc(Br)cc32)CC1` (single isomer, unassigned) [Example 26 (named cis for convenience), cis*-1-cyclooctylmethyl-1-ethyl-4-(2,7-dibromoxanthene-9-carboxamido)piperidinium iodide], the IC50 [1] was 1.9 nM, the IC50 [2] was 2.7 nM and the “inhibitory ratio (%) of increase in the concentration of intracellular calcium” value [3] was 51%.

In the case of `C[N+]1(CC2CCCCCCC2)CCC(NC(=O)C2c3cc(Br)ccc3Oc3ccc(Br)cc32)CC1` (stereo not drawn) [Example 22, 1-cyclooctylmethyl-1-methyl-4-(2,7-dibromoxanthene-9-carboxamido)piperidinium iodide], the IC50 [1] is reported as 3.9 nM and the IC50 [2] is reported as 13 nM.

`O=C(NC1CCN(CC2=CCCCCCCC2)CC1)C1c2ccccc2Oc2ccccc21` [Example 61 (named cis for convenience)] was tested, and the IC50 [1] was 1.8 nM and the IC50 [2] was 1.7 nM.

`CC[N+]1(CC2=CCCCCCC2)CCC(NC(=O)C2c3cc(Cl)ccc3Oc3ccc(Cl)cc32)CC1` (stereo not drawn) [Example 62 (named cis for convenience), cis*-1-(1-cyclooctenylmethyl)-1-ethyl-4-(2,7-dichloroxanthene-9-carboxamido)piperidinium bromide] gave an IC50 [1] of 1.8 nM and an IC50 [2] of 0.74 nM.

`C=C[C@@]1(C)CC(=O)[C@]2(O)[C@@]3(C)[C@@H](O)CCC(C)(C)[C@@H]3[C@H](O)[C@H](OC(C)=O)[C@@]2(C)O1` [Forskolin, reference compound] was tested, and the cAMP concentration [4, 5] was 67.8 +/- 8.4 pmol/10^6 cells.

With `CC[N+]1(CC2=CCCCCCC2)CCC(NC(=O)C2c3cc(Cl)ccc3Oc3ccc(Cl)cc32)CC1` (stereo not drawn) [Example 59 (named cis for convenience), cis*-1-(1-cyclooctenylmethyl)-1-ethyl-4-(2,7-dichloroxanthene-9-carboxamido)piperidinium iodide] the “inhibitory ratio (%) of increase in the concentration of intracellular calcium” value [3] was 97%.

In the case of `CC[N+]1(CC2CCCCCCC2)CCC(NC(=O)C2c3ccccc3Oc3ccccc32)CC1.[I-]` (stereo not drawn) [Example 12, 1-cyclooctylmethyl-1-ethyl-4-(xanthene-9-carboxamido)piperidinium iodide], the IC50 [1] is reported as 5.2 nM, the IC50 [2] is reported as 40 nM and the cAMP concentration ([4]; 0.01 mM Forskolin + 100 nM hMIP-1 alpha + 0.01 mM test compound added 5 minutes before hMIP-1 alpha) is reported as 81.6 +/- 4.2 pmol/10^6 cells.

B1: hMIP - 1 alpha: chemokine (polypeptidic leukocytic migration factor), agonist used at 100 nM (protein, UniProt P10147 24-92, looked up)
C-C motif chemokine 3: SLAADTPTACCFSYTSRQIPQNFIADYFETSSQCSKPGVIFLTKRSRQVCADPSEEWVQKYVSDLELSA
For B1, the cAMP concentration [4, 5] was 47.7 +/- 4.2 pmol/10^6 cells.
